For this assay, the system named is WM-266-4 xenograft tumors. In words: WM-266-4 human melanoma xenograft model. Type of assay: in vivo. The settings on record: WM-266-4 xenograft tumors in female nude mice, staged at 112±6 mg; MEK compound 10 mg/kg PO qd x 14 (AM); rapamycin 5 mg/kg IP qd x 14 (PM); single agents or combination. The procedure:
For subcutaneous or intradermal tumors, the mean tumor weight of each animal in the respective control and treatment groups was determined twice weekly during the study. Tumor weight (TW) was determined by measuring perpendicular diameters with a caliper, using the following formula: tumor weight (mg)=[tumor volume=length (mm)×width^2 (mm^2)]/2.
Percent inhibition of tumor growth (TGI) is determined with the following formula:
[formula] where X0=average TW of all tumors on group day; Xf=TW of treated group on Day f; Yf=TW of vehicle control group on Day f
[formula] TGI is calculated individually for each tumor to obtain a mean±SEM value for each experimental group. Statistical significance is determined using the 2-tailed Student's t-test (significance defined as P<0.05).
The WM-266-4 human melanoma cell line is PTEN-deficient, and harbors a heterozygous activating mutation in the gene encoding B-Raf. Therefore, the ability of a MEK inhibitor administered as monotherapy, and in combination with the mTOR inhibitor rapamycin, was examined to inhibit the growth of WM-266-4 xenograft tumors in nude mice.
Tumors were established in female nude mice and staged when the tumors reached 112±6 mg. […]

On to `CO[C@H]1C[C@@H]2CC[C@@H](C)[C@@](O)(O2)C(=O)C(=O)N2CCCC[C@H]2C(=O)O[C@H]([C@H](C)C[C@@H]2CC[C@@H](O)[C@H](OC)C2)CC(=O)[C@H](C)/C=C(\C)[C@@H](O)[C@@H](OC)C(=O)[C@H](C)C[C@H](C)/C=C/C=C/C=C/1C` [Rapamycin, rapamycin], for which the “TGI (%), tumor growth inhibition” value is 60%.

For the origin of these results see patent US7999006B2, “Methods of using MEK inhibitors” (Exelixis, Inc., priority 2006, dated 2011).
